According to ChEMBL document CHEMBL1136946, “The regulation of inflammatory cytokine secretion in macrophage cell line by the chemical constituents of Rhus sylvestris” (Bioorg Med Chem Lett, 2009):
pIC50: −log10 of the molar value. Calls of active or inactive are those of the source. No cut-off for these calls is given here.

What was measured:
HeLa = experiment: Cytotoxicity against human HeLa cells by MTT assay; type: functional, cell-based
MCF7 = experiment: Cytotoxicity against human MCF7 cells by MTT assay; type: functional, cell-based
SK-MEL-1 = experiment: Cytotoxicity against human SK-MEL-1 cells by MTT assay; type: functional, cell-based
RAW264.7 [1] = experiment: Antiinflammatory activity in mouse RAW264.7 cells assessed as inhibition LPS-induced TNFalpha secretion at 1 uM after 12 hrs; type: functional; conditions: RAW264.7, 12 h
RAW264.7 [2] = experiment: Antiinflammatory activity in mouse RAW264.7 cells assessed as inhibition LPS-induced TNFalpha secretion at 0.01 uM after 12 hrs; type: functional; conditions: RAW264.7, 12 h
RAW264.7 [3] = experiment: Antiinflammatory activity in mouse RAW264.7 cells assessed as inhibition LPS-induced IL6 secretion at 1 uM after 12 hrs; type: functional; conditions: for inhibition at 1 µM: RAW264.7, 12 h

**Q.** How did the pIC50 (HeLa) turn out when `CC(C)=CCC[C@@H](C)[C@H]1CC[C@@]2(C)[C@@H]3CC=C4[C@@H](CC[C@H](O)C4(C)C)[C@]3(C)CC[C@]12C` was run?
**A.** < 4.30

**Q.** What about the pIC50 (MCF7) of the same compound?
**A.** < 4.30

**Q.** What about the pIC50 (SK-MEL-1) of the same compound?
**A.** < 4.30

**Q.** What about the inhibition at 1 µM (RAW264.7 [1]) of the same compound?
**A.** 80.9%

**Q.** With `CC1(C)CC[C@]2(C)CC[C@]3(C)[C@H]4CC=C5[C@@H](CC[C@H](O)C5(C)C)[C@]4(C)CC[C@@]3(C)[C@@H]2C1` [GLUTINOL] as the compound, how does the pIC50 (HeLa) read?
**A.** < 4.30

**Q.** What about the pIC50 (MCF7) of the same compound?
**A.** < 4.30

**Q.** What about the pIC50 (SK-MEL-1) of the same compound?
**A.** < 4.30

**Q.** What about the inhibition at 0.01 µM (RAW264.7 [2]) of the same compound?
**A.** 20.9%

**Q.** What about the Activity (RAW264.7 [3]) of the same compound?
**A.** inactive

**Q.** What does the source list for `C=C(C)[C@@H]1CC[C@]2(C)CC[C@]3(C)[C@H](CC[C@@H]4[C@@]5(C)CC[C@H](O)C(C)(C)[C@@H]5CC[C@]43C)[C@@H]12` [LUPEOL]?
**A.** pIC50 (HeLa): < 4.30; pIC50 (MCF7): < 4.30; pIC50 (SK-MEL-1): < 4.30

**Q.** `CC[C@H](CC[C@@H](C)[C@H]1CC[C@H]2[C@@H]3CC=C4C[C@@H](O)CC[C@]4(C)[C@H]3CC[C@]12C)C(C)C` [BETA-SITOSTEROL] was tested. Which pIC50 (HeLa) did it give?
**A.** 4.34

**Q.** What about the pIC50 (MCF7) of the same compound?
**A.** 4.38

**Q.** And the pIC50 (SK-MEL-1)?
**A.** < 4.30

**Q.** What about the inhibition at 0.01 µM (RAW264.7 [2]) of the same compound?
**A.** 20.9%

**Q.** And the inhibition at 1 µM (RAW264.7 [3])?
**A.** 54.5%

**Q.** How did the pIC50 (HeLa) turn out when `COc1ccc(/C=C/C(=O)c2ccc(OC)cc2O)cc1` was run?
**A.** < 4.30

**Q.** And the pIC50 (MCF7)?
**A.** 4.34

**Q.** And the pIC50 (SK-MEL-1)?
**A.** 4.38

**Q.** What about the inhibition at 0.01 µM (RAW264.7 [2]) of the same compound?
**A.** 20.9%

**Q.** What about the Activity (RAW264.7 [3]) of the same compound?
**A.** inactive

**Q.** `CC1(C)CC[C@]2(C)CC[C@]3(C)C(=CC[C@@H]4[C@@]5(C)CC[C@H](O)C(C)(C)[C@@H]5CC[C@]43C)[C@@H]2C1` [beta-AMYRIN] was tested. Which pIC50 (HeLa) did it give?
**A.** < 4.30

**Q.** What about the pIC50 (MCF7) of the same compound?
**A.** < 4.30

**Q.** And the pIC50 (SK-MEL-1)?
**A.** < 4.30

**Q.** What does the source list for `C=C(C)C(=O)CC[C@@H](C)[C@H]1CC[C@@]2(C)[C@H]3CC[C@H]4C(C)(C)C(=O)CC[C@@]45C[C@@]35CC[C@]12C`?
**A.** pIC50 (HeLa): 4.60; pIC50 (MCF7): 4.51; pIC50 (SK-MEL-1): 4.80; inhibition at 0.01 µM (RAW264.7 [2]): 20.9%; Activity (RAW264.7 [3]): inactive

**Q.** `CC(C)=CCC[C@@H](C)[C@H]1CC[C@@]2(C)[C@H]3CC[C@H]4C(C)(C)C(=O)CC[C@@]45C[C@@]35CC[C@]12C` was tested. Which pIC50 (HeLa) did it give?
**A.** < 4.30

**Q.** What about the pIC50 (MCF7) of the same compound?
**A.** < 4.30

**Q.** What about the pIC50 (SK-MEL-1) of the same compound?
**A.** < 4.30

**Q.** What about the inhibition at 1 µM (RAW264.7 [1]) of the same compound?
**A.** 15.2%

**Q.** What about the Activity (RAW264.7 [3]) of the same compound?
**A.** inactive

**Q.** How did the pIC50 (HeLa) turn out when `CC(=O)O[C@H]1CC[C@]2(C)[C@H]3CC=C4[C@@H]5CC(C)(C)CC[C@]5(C)CC[C@@]4(C)[C@]3(C)CC[C@H]2C1(C)C` [beta-AMYRIN ACETATE] was run?
**A.** < 4.30

**Q.** What about the pIC50 (MCF7) of the same compound?
**A.** 4.57

**Q.** And the pIC50 (SK-MEL-1)?
**A.** < 4.30

**Q.** And the inhibition at 0.01 µM (RAW264.7 [2])?
**A.** 20.9%

**Q.** What about the Activity (RAW264.7 [3]) of the same compound?
**A.** inactive

**Q.** How did the pIC50 (HeLa) turn out when `C=C(C)C(O)CC[C@@H](C)[C@H]1CC[C@@]2(C)[C@H]3CC[C@H]4C(C)(C)C(=O)CC[C@@]45C[C@@]35CC[C@]12C` (stereo not given in full) was run?
**A.** < 4.30

**Q.** And the pIC50 (MCF7)?
**A.** < 4.30

**Q.** What about the pIC50 (SK-MEL-1) of the same compound?
**A.** < 4.30

**Q.** And the inhibition at 0.01 µM (RAW264.7 [2])?
**A.** 20.9%

**Q.** And the inhibition at 1 µM (RAW264.7 [3])?
**A.** 54.6%
